Tests used:
[1] = Metabolites in human liver microsomes (systems I-human, II-human); format: in vitro ADME
Protocol: Then, NADPH-B (10 μl) was added and the mixed solution incubated for 2 h. […] Next, UDPGA (50 μl) was added and the mixed solution incubated for 2 h. In addition, the naringenin solution (1 mM, 10 μl) was evaluated in human systems I and II as above.
(§1) The incubated solution (500 μl) of systems I-rat, II-rat, III-rat, I-human, and II-human were extracted with ethyl acetate (500 μl) for at least 3 min by vortexing and centrifuged for 10 min at 13,000 rpm and 4°C. The extraction process described above was performed twice and all supernatants were transferred into centrifuge tubes, dried with N2, and dissolved with methanol-water (1:1, v/v). All samples were injected into a UPLC/Q-TOF-MS system consisting of a Waters Acquity ultra performance liquid chromatography (UPLC) coupled with a Micromass micro™ quadrupole time-of-flight mass spectrometry (Q-TOF-MS) system (Waters Corp., Milford, MA, USA), equipped with an electrospray ionization source, and controlled by the MassLynx (v. 4.1) software. Separation was performed on a Waters Acquity UPLC BEH C18 column (50 mm × 2.1 mm, 1.7 μm) at 40°C. The mobile phase consisted of 0.1% formic acid (v/v) in water (A) and methanol (B) using a linear gradient of 95% to 60% A (0–25 min), 60% to 40% A (25–35 min), 40% to 10% A (35–40 min), 10% A (40–43 min), 10% to 95% A (43–44 min), and 95% A (44–45 min). The injection volume was 5 μl with flow rate of 0.2 ml min^-1. The Q-TOF-MS worked in a full scan mode (100–1,200 m/z), selection ion mode, and product ion mode, in negative ion mode, respectively. The conditions were as follows: capillary voltage 3,000 V, sample cone voltage 30 V, extraction cone voltage 2.0 V, source temperature 100°C, desolvation temperature 350°C, cone gas (N2) flow rate of 40 L/h, desolvation gas (N2) flow rate of 700 L/h, low collision energy 6.0 eV, and high collision energy 20–80 eV. Compounds were detected with accurate mass using leucine enkephalin for mass correction at 554.2615 (m/z) in negative ionization mode.

[2] = Metabolites in rat liver microsomes (systems I-rat, II-rat); format: in vitro ADME, Sprague-Dawley rat
Protocol: Then, NADPH-B (10 μl) was added and incubated for 2 h. […] Then, UDPGA (50 μl) was added and incubated for 2 h. […] Then, UDPGA (50 μl) was added and incubated for 2 h. In addition, the naringenin solution (1 mM, 10 μl) was evaluated in rat systems I, II, and III as above.
as §1

Row | SMILES | found in human liver microsomes, incubation of naringenin (S) [1] | found in rat liver microsomes, incubation of naringenin (S) [2]
1 | O=C1C[C@@H](c2ccc(O)c(O)c2)Oc2cc(O)cc(O)c21 [M7, Eriodictyol] | + | +
2 | O=c1cc(-c2ccc(O)cc2)oc2cc(O)cc(O)c12 [M6, Apigenin] | + | +
3 | COc1ccc([C@@H]2CC(=O)c3c(O)cc(O)cc3O2)cc1O [M8, Hesperetin] | – | +

From PMC7118210 (Frontiers in Pharmacology, 2020)
